PubChem BioAssay AID179 (DTP/NCI, 2004)
pEC50, pIC50: −log10 of the molar value. Activity calls are given as the source filed them.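 How the source made its calls: active means compounds giving half or more protection of infected cells from virus-caused growth loss, again on retest; inactive means the rest.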

System: CEM cells HIV-1 protection, formazan growth assay
Assay: NCI AIDS Antiviral Assay
Details: for pIC50: measured here: growth of uninfected CEM cells
Outline: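 Five concentrations of each compound were applied to infected and uninfected human CEM cells. Protection from HIV-1 was judged from growth measured with a soluble formazan assay.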

Row | Structure (SMILES) | pEC50 | pIC50 | outcome
1 | CC(C)OC(=O)c1ccc(CCc2cc(O)c(Br)cc2O)cc1 | < 3.70 | 5.08 | 
2 | CNC(=O)N1CN(c2ccccc2)C2(CCN(CCCC3(c4ccc(F)cc4)OCCO3)CC2)C1=O | < 3.70 | 4.41 | 
3 | S=C(N/N=C/c1ccco1)NC12CC3CC(CC(C3)C1)C2 |  |  | inactive
4 | CN1CCN(c2[nH]c(=O)n(Cc3ccccc3)c(=S)c2C#N)CC1 | < 3.70 | < 3.70 | 
5 | COc1cc([C@@H]2OC(=O)C3C2C(=O)O[C@H]3c2ccc(O)c(OC)c2)ccc1O (some centres undefined) |  |  | inactive
6 | CCOC(=O)/C(=C/c1ccc(OC)cc1)C(=O)c1ccccc1 | < 4.77 | < 4.77 | 
7 | O=C1CCCCN1 |  |  | inactive
8 | Cc1cc2occ(S(=O)(=O)NC(=O)Nc3ccc(Cl)cc3)c(=O)c2c(=O)o1 | < 3.70 | 3.82 | 
9 | CC(=O)OC1C(OC(C)=O)[C@@]2(C)C(C(OC(C)=O)[C@@H]3C2C(C)C=C2OC(=O)[C@@](C)(O)[C@@]23C)[C@H]2C1[C@]1(C)C(C[C@@H]3O[C@@H]3C1OC(C)=O)C(=O)[C@@H]2O (some centres undefined) |  |  | inactive
10 | Cc1ccc2[nH]c3c(ncc4[nH]c5ccccc5c43)c2c1 | < 4.72 | 5.41 | 
11 | COC(=O)CSc1nc2[nH]c(SC)c(C(N)=O)c2c(=O)n1-c1ccccc1 | < 3.70 | < 3.70 | 
12 | c1ccc(P2CCc3[nH]c4ccccc4c3C2)cc1 (centres undefined) | < 4.42 | < 4.42 | 
13 | COc1ccc(C(=O)C(C(=O)CCC(=O)Nc2ccc(Cl)c(Cl)c2)c2ccc(OC)cc2)cc1 (centres undefined) | < 4.14 | < 4.14 | 
14 | Cc1ccc2c(c1)C(C1Cc3c(C)cccc3C1=O)OC2=O (centres undefined) | < 3.70 | < 3.70 | 
15 | COc1cc(C[C@@]2(O)C(=O)OCC2Cc2ccc(OC)c(OC)c2)ccc1O (some centres undefined) | < 3.70 | 4.44 | 
16 | NC(CCOCCP(=O)(O)O)C(=O)O (centres undefined) | < 3.70 | < 3.70 | 
17 | COc1ccc(C2OCC3C2CO[C@H]3c2ccc(OC)c(OC)c2)cc1OC (mixture of isomers) | < 3.70 | 4.03 | 
18 | CCCCN(CCCC)C(=O)/C(CC(=O)c1cccc2ccccc12)=N\NC(=O)c1cc2ccccc2cc1O | < 4.46 | 4.79 | 
19 | Nc1c(C(=O)O)nnc2cc(Cl)c(Cl)cc12 | < 3.70 | < 3.70 | 
20 | CCCCOC(=O)c1ccc(NC(=O)C(C)N(CC)CC)cc1 (centres undefined) | < 3.70 | 4.44 | 

Row | Structure (SMILES) | pEC50 | pIC50 | outcome
21 | CNS(=O)(=O)NNS(=O)(=O)c1ccc2ccccc2c1 | < 3.24 | 3.77 | 
22 | COc1csc([C@H]2CCC3[C@@H]4CC=C5C[C@@H](OC(=O)CCC(=O)O)CC[C@]5(C)C4CC[C@@]32C)n1 (some centres undefined) | < 4.29 | 4.49 | 
23 | CC(C)(C)CC(C)(C)c1cc2c(O)c(c1)Cc1cc(C(C)(C)CC(C)(C)C)cc(c1O)Cc1cc(C(C)(C)CC(C)(C)C)cc(c1O)Cc1cc(C(C)(C)CC(C)(C)C)cc(c1O)Cc1cc(C(C)(C)CC(C)(C)C)cc(c1O)C2 | < 5.06 | < 5.06 | 
24 | O=C(/C=C/c1ccc2c(c1)OCO2)c1cccc2ccccc12 | < 5.18 | < 5.18 | 
25 | Cc1cc2c(=O)cc(-c3ccc(Cl)cc3)oc2c(C(=O)O)c1C |  |  | inactive
26 | NC[C@H]1Nc2ccccc2[C@@H](O)C1O (some centres undefined) | 4.32 | 2.89 | 
27 | C[C@@H]1CN(C(=O)CCOS(C)(=O)=O)[C@@H](C)CN1C(=O)CCOS(C)(=O)=O | < 3.70 | 4.17 | 
28 | CCN(CC)CCOc1ccc(C(C#N)=C(c2ccccc2)c2ccccc2)cc1 | < 3.70 | 5.59 | 
29 | O=C1CCCNn2c(nc3ncccc3c2=O)N1 | < 3.70 | 3.80 | 
30 | CCOC(=O)/C(=C/c1cn(C(C)=O)c2ccccc12)P(C)(=O)OCC (centres undefined) | < 3.70 | 4.43 | 
31 | CCCCCCCCCCCCCCCC(=O)Nc1ccn(C2CCC(COP(=O)(O)OC3CC(n4cc(C)c(=O)[nH]c4=O)OC3CO)O2)c(=O)n1 (centres undefined) | 7.03 | 4.34 | 
32 | CC1SC2=NC3=C(c4ccccc4C3=O)C(c3ccc(F)cc3)N2C1=O (centres undefined) | < 4.43 | < 4.43 | 
33 | CC12CCC[C@@](C)(C(=O)OC3OC(CO)C(O)C(O)C3O)[C@H]1CCC13CC4CC(OC4(CO)[C@H]1O)[C@@H]23 (some centres undefined) |  |  | inactive
34 | CCOC1=NC(C(F)(F)F)(C(F)(F)F)N=C(N2CCCCC2)O1 | < 3.70 | 4.01 | 
35 | COc1ccc(/C=N/O)cc1OC | < 2.86 | 3.11 | 
36 | O=C1C=C(Nc2ccccc2C(=O)c2ccccc2)c2ccccc2C1=O | < 5.53 | < 5.53 | 
37 | O=S1(=O)CC2(N3CCCC3)CCCCC21 (centres undefined) | < 2.96 | 3.21 | 
38 | CCOC(=O)/C=C1\C[C@H](NC(=O)OCc2ccccc2)C(=O)N1CC(=O)OCC | < 3.70 | < 3.70 | 
39 | Nc1c(N=Nc2ccc(S(=O)(=O)c3ccc(N=Nc4cc(S(=O)(=O)O)c5cccc(S(=O)(=O)O)c5c4N)cc3)cc2)cc(S(=O)(=O)O)c2cccc(S(=O)(=O)O)c12 | 4.60 | 3.42 | 
40 | CC1=COC(=O)c2ccccc2N1 | < 3.27 | 3.85 | 

Row | Structure (SMILES) | pEC50 | pIC50 | outcome
41 | O=C(CP(c1ccccc1)c1ccccc1)c1cccc(C(=O)CP(c2ccccc2)c2ccccc2)c1 | < 3.70 | 4.48 | 
42 | CCOc1ccc2nc(NC(=O)C(=O)C(C(=O)c3ccccc3F)C3OC(=O)c4ccccc43)sc2c1 (centres undefined) | < 3.74 | 5.09 | 
43 | CC(CN1CCN(CC(C)Nc2ccnc3cc(Cl)ccc23)CC1)Nc1ccnc2cc(Cl)ccc12 (centres undefined) | < 4.30 | < 4.30 | 
44 | CC1=NNC(=O)C1C1(C(=O)O)CC(c2c[nH]c3ccccc23)=NC(=S)N1 (centres undefined) | < 4.00 | 4.16 | 
45 | Cc1nc2ccc(N=Nc3c(O)ccc4ccccc34)cc2[nH]1 | < 4.21 | 4.26 | 
46 | O=C(O)/C=C/c1ccc(O)c(O)c1 | < 2.86 | 4.18 | 
47 | COc1ccc(C(=O)CCC2(C)OCCO2)cc1OC | < 3.19 | 3.32 | 
48 | CCOC(=O)/C(=C\c1c(C)[nH]c2ccccc12)P(=O)(OCC)OCC | 4.16 | 3.96 | 
49 | CC(=O)OC12C3C4C1C1C2C3C41OC(C)=O (centres undefined) | < 3.70 | < 3.70 | 
50 | COc1ccc(/C=C/C(=O)CCN2CCN(CCC(=O)/C=C/c3ccc(OC)cc3)CC2)cc1 | < 3.82 | 5.80 | 
51 | CCCCC(=O)Oc1c(Cl)cc(C(=CCC[C@H]2CC[C@@]3(C)[C@@H](CC[C@@H]4[C@@H]3CC[C@]3(C)[C@@H](C(C)CCCC(C)C)CC[C@@H]43)C2)c2cc(Cl)c(OC(=O)CCCC)c(C(=O)O)c2)cc1C(=O)O (some centres undefined) | 4.13 | < 4.00 | 
52 | COc1ccc2c(c1)c(OC)c(CC(O)C(C)(C)O)c(=O)n2C (centres undefined) | < 3.70 | < 3.70 | 
53 | Cc1ccccc1C1=[N+]([O-])c2ccc(Cl)cc2C1=O |  |  | inactive
54 | CCCc1cc(=O)oc2c3c(cc(OS(=O)(=O)c4ccc(C)cc4)c12)O[C@H](C)[C@H](C)C3=O | < 3.82 | 4.02 | 
55 | CC1=NN(C(=O)CC(=O)N(C(=O)c2ccccc2Cl)c2ccc(C)cc2)C(=O)C1N=Nc1ccc([N+](=O)[O-])cc1 (centres undefined) | < 4.89 | < 4.89 | 
56 | ClC(Cl)=CC(Cl)(Cl)C(Cl)(Cl)C(Cl)(Cl)Cl | < 3.70 | 5.26 | 
57 | COC(=O)[C@@H]1COC(CC/C(C)=C/c2ccccc2)=N1 | < 3.70 | 4.35 | 
58 | COC(=O)CCC(C)C1CCC2[C@@H]3CC[C@@H]4CC(=O)CC[C@]4(C)C3CC[C@]12C (some centres undefined) | < 5.29 | < 5.29 | 
